Structures can show the parent of a compound that is named as a salt.
Key:
[1] = biological target: T1, 5-HT1A receptors (Rattus norvegicus, UniProt P19327); assay: inhibition of [3H]8-OH-DPAT binding to 5-HT1A receptors in vitro; set-up: species or system rat (male Sprague-Dawley, hippocampal tissue); conditions: rat hippocampus; for Ki: [3H]8-OH-DPAT 2 nM, 25° C., 30 min
T1 sequence (P19327 1-422): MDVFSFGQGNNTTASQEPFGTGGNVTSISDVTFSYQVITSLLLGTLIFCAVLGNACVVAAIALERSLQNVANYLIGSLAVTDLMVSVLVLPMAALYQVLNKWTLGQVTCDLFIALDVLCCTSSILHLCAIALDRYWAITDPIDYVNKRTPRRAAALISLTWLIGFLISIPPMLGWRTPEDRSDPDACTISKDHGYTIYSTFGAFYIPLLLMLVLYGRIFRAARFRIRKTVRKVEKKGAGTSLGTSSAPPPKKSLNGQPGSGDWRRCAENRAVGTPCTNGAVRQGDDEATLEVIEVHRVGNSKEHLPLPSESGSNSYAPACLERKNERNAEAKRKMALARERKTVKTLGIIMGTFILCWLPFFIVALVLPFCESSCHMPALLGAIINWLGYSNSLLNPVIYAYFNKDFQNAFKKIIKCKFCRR

[2] = biological target: T2, α2A-adrenoceptors (Homo sapiens, UniProt P08913); assay: inhibition of tritiated RX 821002 binding to α2A-adrenoceptors in vitro; set-up: species or system human (cerebral cortex post-mortem); conditions: human cerebral cortex; for inhibition at 1 µM: 10^-6 M, [3H]RX 821002, read-out: % displacement at 10^-6 M, α2A; for Ki: [3H]RX 821002 0.2 nM, 0° C., 75 min
T2 construct: Human cerebral cortex obtained at post-mortem; from tissue; host or cells: human cerebral cortex, post-mortem
T2 sequence (P08913 1-465): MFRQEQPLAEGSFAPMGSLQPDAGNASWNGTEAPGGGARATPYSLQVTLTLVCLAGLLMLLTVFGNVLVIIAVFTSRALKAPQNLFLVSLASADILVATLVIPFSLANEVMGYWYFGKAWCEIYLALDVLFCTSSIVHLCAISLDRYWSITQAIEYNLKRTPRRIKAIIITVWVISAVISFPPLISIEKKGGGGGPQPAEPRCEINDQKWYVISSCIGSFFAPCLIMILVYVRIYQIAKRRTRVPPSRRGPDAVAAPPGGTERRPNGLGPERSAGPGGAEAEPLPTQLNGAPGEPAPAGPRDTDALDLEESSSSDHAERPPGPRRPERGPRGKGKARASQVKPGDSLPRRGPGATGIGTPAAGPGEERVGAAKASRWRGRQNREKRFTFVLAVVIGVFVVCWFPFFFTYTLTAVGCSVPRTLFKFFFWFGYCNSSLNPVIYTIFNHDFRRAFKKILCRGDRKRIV
Protocol: Human cerebral cortex obtained at post-mortem was homogenised in ice-cold 0.25M sucrose (1:30 w/v) and centrifuged at 1,000 g at 4° C. for 12 minutes. The supernatant was stored on ice and the pellet was rehomogenised in 0.25M sucrose (1:15 w/v) and centrifuged at 850 g at 4° C. for 12 minutes. Combined supernatants were diluted with 5 mM Tris-HCl (pH 7.5) containing 5 mM ethylenediamine tetraacetic acid (EDTA), readjusted to pH 7.5 (at 25° C.) with 1M sodium hydroxide to 1:80 w/v, and centrifuged at 11,000 g at 4° C. for 10 minutes. The resulting pellet was resuspended in 50 mM Tris-HCl (pH 7.5) containing 5.68 mM L-ascorbic acid and 0.5 mM EDTA, readjusted to pH 7.5 (at 25° C.) with 1M sodium hydroxide to 1:80 w/v, and centrifuged at 11,000 g for 10 minutes. The pellet was stored at -80° C. On the day of the assay the pellet was thawed, resuspended in 50 mM Tris-HCl (pH 7.5) containing 5.68 mM L-ascorbic acid and 5 mM EDTA to 1:80 w/v and centrifuged at 11,000 g for 10 minutes. The final pellet was resuspended in 50 mM Tris-HCl (pH 7.5) containing 5.68 mM L-ascorbic acid and 5 mM EDTA (equivalent to 25 mg wet weight of tissue/ml).
Aliquots (400 μl; equivalent to 10 mg wet weight of tissue/tube) of this suspension were added to tubes containing the ligand (50 μl; 0.2 nM) and distilled water (50 μl; total binding) or phentolamine (50 μl; 50 μM; non-specific binding) or test compound (50 μl; at a single concentration of 10^-6 M or at 10 concentrations ranging from 10^-11 -10^-3 M). The ligand was tritiated RX 821002 (2-(2-methoxy-1,4-[6,7(n)-^3 H]benzodioxan-2-yl)-2-imidazoline) and the mixture was incubated at 0° C. for 75 minutes before the incubation was terminated by rapid filtration.
The filters were washed with ice-cold Tris-HCl buffer and dried. The filters were punched out into vials, scintillation fluid added and radioactivity determined by liquid scintillation counting. The percentage displacement of specific binding of the tritiated ligand was calculated for the single concentration (10^-6 M) of test compound. Displacement curves were then produced for those compounds which displaced ≥50% of specific binding of the tritiated ligand at 10^-6 M using a range of concentrations of the compound. The concentration which gave 50% inhibition of specific binding (IC50) was obtained from the curve. The inhibition coefficient Ki was then calculated using the formula [formula] in which [ligand] is the concentration of the tritiated ligand used and KD is the equilibrium dissociation constant for the ligand.

[3] = biological target: T3, α2D-adrenoceptors (Rattus norvegicus, UniProt P22909); assay: inhibition of tritiated idazoxan binding to α2D-adrenoceptors in vitro; set-up: species or system rat (male Charles River CD, frontal cortical tissue); conditions: rat frontal cortex; for Ki: [3H]idazoxan 1 nM, 0° C., 75 min; for inhibition at 1 µM: 10^-6 M, [3H]idazoxan, read-out: % displacement at 10^-6 M, α2D
T3 sequence (P22909 1-465): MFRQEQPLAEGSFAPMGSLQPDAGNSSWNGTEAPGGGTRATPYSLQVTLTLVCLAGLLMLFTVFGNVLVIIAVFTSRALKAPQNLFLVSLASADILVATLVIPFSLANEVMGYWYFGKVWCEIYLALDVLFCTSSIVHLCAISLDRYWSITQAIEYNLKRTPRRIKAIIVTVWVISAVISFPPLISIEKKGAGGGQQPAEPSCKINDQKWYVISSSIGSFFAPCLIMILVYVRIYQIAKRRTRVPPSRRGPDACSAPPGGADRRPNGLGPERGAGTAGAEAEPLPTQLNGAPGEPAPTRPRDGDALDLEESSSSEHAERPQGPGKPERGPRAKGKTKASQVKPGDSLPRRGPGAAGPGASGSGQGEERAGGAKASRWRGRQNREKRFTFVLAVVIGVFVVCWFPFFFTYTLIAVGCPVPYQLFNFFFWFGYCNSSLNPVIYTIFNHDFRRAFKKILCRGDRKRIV

[4] = biological target: α1-adrenoceptors; assay: inhibition of 7-methoxy-[3H]prazosin binding to α1-adrenoceptors in vitro; set-up: species or system rat (male Charles River CD, whole cortical tissue); conditions: rat whole cortex, 30 min; for Ki: 7-methoxy-[3H]prazosin 0.1 nM, 30° C.
Protocol: Whole cortical tissue from the brains of male Charles River CD rats weighing between 150-250 g were homogenised in ice-cold 50 mM Tris-HCl, pH 7.6 (at 25° C.; 1:40 w/v) and centrifuged at 1000 g at 4° C. for 10 minutes. The supernatant was centrifuged at 30,000 g at 4° C. for 10 minutes. The pellet was rehomogenised in 50 mM Tris-HCl, pH 7.6 (1:40 w/v) and centrifuged at 30,000 g at 4° C. for 10 minutes. The final pellet was resuspended in 50 mM Tris-HCl, pH 7.6 (equivalent to 12.5 mg wet weight of tissue/ml) and used immediately in the binding assay. Aliquots (400 μl; equivalent to 5 mg wet weight of tissue/tube) of this suspension were added to tubes containing the ligand (50 μl; 0.1 nM) and distilled water (50 μl; total binding) or phentolamine (50 μl; 5 μM; non-specific binding) or test compound (50 μl; at a single concentration of 10^-6 M or at 10 concentrations ranging from 10^-11 -10^-3 M). The ligand was 7-methoxy-[^3 H]prazosin and the mixture was incubated at 30° C. for 30 minutes before the incubation was terminated by rapid filtration. The filters were washed with ice-cold Tris-HCl buffer and dried. The filters were punched out into vials, scintillation fluid added and radioactivity determined by liquid scintillation counting. The percentage displacement of specific binding of the tritiated ligand was calculated for the single concentration (10^-6 M) of test compound. […] The concentration which gave 50% inhibition of specific binding (IC50) was obtained from the curve. The inhibition coefficient Ki was then calculated using the formula [formula] in which [ligand] is the concentration of the tritiated ligand used and KD is the equilibrium dissociation constant for the ligand.

[5] = biological target: D2 dopamine receptors (Rattus norvegicus, UniProt P61169); assay: inhibition of tritiated (S)-sulpiride binding to D2 dopamine receptors in vitro; set-up: species or system rat (male Charles River CD, striatal tissue); conditions: rat striatum, tritiated (S)-sulpiride 1 nM, 4° C., 40 min
Chain of D2 dopamine receptors (P61169 whole entry): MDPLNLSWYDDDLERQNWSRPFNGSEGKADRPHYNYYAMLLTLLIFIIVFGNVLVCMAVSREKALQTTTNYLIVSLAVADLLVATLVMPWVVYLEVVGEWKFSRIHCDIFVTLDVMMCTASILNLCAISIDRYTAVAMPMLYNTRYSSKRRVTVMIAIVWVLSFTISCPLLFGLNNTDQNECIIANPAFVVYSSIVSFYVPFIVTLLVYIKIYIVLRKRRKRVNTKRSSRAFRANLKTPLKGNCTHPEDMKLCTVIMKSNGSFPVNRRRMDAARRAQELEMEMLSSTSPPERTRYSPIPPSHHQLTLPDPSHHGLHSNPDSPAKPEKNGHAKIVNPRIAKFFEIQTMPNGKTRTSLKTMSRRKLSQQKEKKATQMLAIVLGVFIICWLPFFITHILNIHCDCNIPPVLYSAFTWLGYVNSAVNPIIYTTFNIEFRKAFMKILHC

| SMILES | Ki [1] | inhibition at 1 µM [2] | Ki [3] | Ki [4] | Ki [5] | Ki [2] | inhibition at 1 µM ([1]; 10^-6 M, [3H]8-OH-DPAT, read-out: % displacement at 10^-6 M, 5-HT1A) | inhibition at 1 µM [3] | % displacement at 10^-6 M, α1 ([4]; 10^-6 M, 7-methoxy-[3H]prazosin, 1 µM) | Ki ([4]; hydrochloride) |
| --- | --- | --- | --- | --- | --- | --- | --- | --- | --- | --- |
| CC1(CN2CCN(c3cccc4c3OCCO4)CC2)N=C(c2ccccc2)NC1=O (stereo not drawn) [Example 38, 4-[4-(1,4-benzodioxan-5-yl)piperazin-1-ylmethyl]-4-methyl-2-phenyl-2-imidazolin-5-one] | 22 nM |  | 199 nM | 473 nM | 281 nM | 196 nM |  |  |  |  |
| Nc1c(CN2CCN(c3cccc4c3OCCO4)CC2)c(C2CCCC2)nn1-c1ccccc1 [Example 21, 5-Amino-4-[4-(1,4-benzodioxan-5-yl)piperazin-1-ylmethyl]-3-cyclopentyl-1-phenylpyrazole] | 58 nM | 89% | 32 nM | 21 nM | 451 nM |  |  |  |  |  |
| Nc1c(CN2CCN(c3cccc(Cl)c3)CC2)c(C2CC2)nn1-c1ccccc1 [Example 14, 5-Amino-4-[4-(3-chlorophenyl)piperazin-1-ylmethyl]-3-cyclopropyl-1-phenylpyrazole] |  | 99% |  |  | > 500 nM |  | 74% | 81% | 80% |  |
| CC(C)(C)c1nn(-c2ccccc2)c(N)c1CN1CCN(c2cccc3c2OCCO3)CC1 [Example 22, 5-Amino-4-[4-(1,4-benzodioxan-5-yl)piperazin-1-ylmethyl]-3-tert-butyl-1-phenylpyrazole] | 29 nM | 66% | > 500 nM | > 500 nM | > 500 nM |  |  |  |  |  |
| Nc1c(CN2CCN(c3cccc4c3OCCO4)CC2)c(-c2ccccc2)nn1-c1ccccc1 [Example 12, 5-Amino-4-[4-(1,4-benzodioxan-5-yl)piperazin-1-ylmethyl]-1,3-diphenylpyrazole] | 19 nM | 99% | 192 nM | 41 nM | > 500 nM |  |  |  |  |  |
| Nc1nn(-c2ccccc2)c(N)c1CN1CCN(c2cccc3c2OCCO3)CC1 [Example 11, 3,5-diamino-4-[4-(1,4-benzodioxan-5-yl)piperazin-1-ylmethyl]-1-phenylpyrazole] | 16 nM | 85% | 60 nM | > 500 nM | 309 nM |  |  |  |  |  |
| CC1(CN2CCN(c3cccc(C(F)(F)F)c3)CC2)N=C(c2ccccc2)NC1=O (stereo not drawn) [Example 41, 4-Methyl-2-phenyl-4-{4-[3-(trifluoromethyl)phenyl]piperazin-1-ylmethyl}-2-imidazolin-5-one] | 224 nM | 57% | > 500 nM | > 500 nM | 129 nM |  |  |  |  |  |

Second part, the compound after the results:

| Ki [1] | inhibition at 1 µM [2] | Ki [3] | Ki [4] | Ki [5] | Ki [2] | inhibition at 1 µM ([1]; 10^-6 M, [3H]8-OH-DPAT, read-out: % displacement at 10^-6 M, 5-HT1A) | inhibition at 1 µM [3] | % displacement at 10^-6 M, α1 ([4]; 10^-6 M, 7-methoxy-[3H]prazosin, 1 µM) | Ki ([4]; hydrochloride) | SMILES |
| --- | --- | --- | --- | --- | --- | --- | --- | --- | --- | --- |
| 15 nM | 100% | 8.9 nM | 9.9 nM | 185 nM |  |  |  |  |  | Nc1c(CN2CCN(c3cccc4c3OCCO4)CC2)c(C2CC2)nn1Cc1ccccc1 [Example 26, 5-Amino-4-[4-(1,4-benzodioxan-5-yl)piperazin-1-ylmethyl]-1-benzyl-3-cyclopropylpyrazole] |
| 21 nM |  | 13 nM | 177 nM | 422 nM | 39 nM |  |  |  |  | CC(C)(C)n1nc(C2CC2)c(CN2CCN(c3cccc4c3OCCO4)CC2)c1N [Example 24, 5-Amino-4-[4-(1,4-benzodioxan-5-yl)piperazin-1-ylmethyl]-1-tert-butyl-3-cyclopropylpyrazole] |
| 27 nM | 98% | 69 nM |  |  |  |  |  |  | 204 nM | Cn1nc(C2CC2)c(CN2CCN(c3cccc4c3OCCO4)CC2)c1N [Example 18, 5-Amino-4-[4-(1,4-benzodioxan-5-yl)piperazin-1-ylmethyl]-3-cyclopropyl-1-methylpyrazole 2.3 hydrochloride] |
| 21 nM | 95% |  | 45 nM | > 500 nM |  |  | 82% |  |  | Cn1nc(C2CCCC2)c(CN2CCN(c3cccc4c3OCCO4)CC2)c1N [Example 31, 5-Amino-4-[4-(1,4-benzodioxan-5-yl)piperazin-1-ylmethyl]-3-cyclopentyl-1-methylpyrazole] |

Reference: patent publication US6114334A, “Piperazine derivatives as therapeutic agents” (Knoll Aktiengesellschaft, priority 1995, dated 2000)
